Where no end group is shown, it is not given here.

In one test the target is KsBcl-2 (Human herpesvirus 8 type P, UniProt F5HGJ3, V117A). As to the kind of experiment: biochemical. Format: binding, Kaposi's sarcoma-associated herpesvirus.
Chain of KsBcl-2 (F5HGJ3 1-146 V117A): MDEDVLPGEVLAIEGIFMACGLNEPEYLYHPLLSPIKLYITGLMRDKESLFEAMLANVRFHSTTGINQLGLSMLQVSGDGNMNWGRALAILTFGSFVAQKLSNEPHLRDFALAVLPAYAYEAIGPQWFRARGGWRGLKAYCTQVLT
Settings: not given
By IC50 is commonly meant the concentration at which inhibition is half-maximal. A lower IC50 goes with higher potency. For PAELEVECATQLRRFGDKLNFRQKLL [Noxa], the IC50 was 0.22 µM.

The same test, now with this note: SEM.
The molecule `CC[C@H](C)[C@H](NC(=O)[C@H](CC(N)=O)NC(=O)[C@H](CCCNC(=N)N)NC(=O)[C@@H](NC(=O)[C@@H](NC(=O)[C@H](CC(=O)O)NC(=O)[C@H](CCC(=O)O)NC(=O)[C@H](CCC(N)=O)NC(=O)[C@H](CO)NC(=O)[C@H](CCC(=O)O)NC(=O)[C@@H](N)CO)[C@@H](C)CC)[C@@H](C)CC)C(=O)N[C@@H](C)C(=O)N[C@@H](CCCNC(=N)N)C(=O)N[C@@H](Cc1c[nH]cn1)C(=O)N[C@@H](CC(C)C)C(=O)N[C@@H](C)C(=O)N[C@@H](CCC(N)=O)C(=O)N[C@H](C(=O)NCC(=O)N[C@@H](CC(=O)O)C(=O)N[C@@H](CO)C(=O)N[C@@H](CCSC)C(=O)N[C@@H](CC(=O)O)C(=O)N[C@@H](CCCNC(=N)N)C(=O)N[C@@H](CO)C(=O)N[C@H](C(=O)N1CCC[C@H]1C(=O)N1CCC[C@H]1C(=O)NCC(=O)N[C@@H](CC(C)C)C(=O)N[C@H](C(=O)N[C@@H](CC(N)=O)C(=O)NCC(=O)N[C@@H](CC(C)C)C(=O)O)C(C)C)[C@@H](C)CC)C(C)C` [Bid] showed an IC50 of 0.02 ± 0.009 µM.

Regarding `CC[C@H](C)[C@H](NC(=O)[C@H](CS)NC(=O)[C@H](C)NC(=O)[C@H](CC(C)C)NC(=O)[C@H](CCCNC(=N)N)NC(=O)[C@H](CC(C)C)NC(=O)[C@H](C)NC(=O)[C@H](CC(C)C)NC(=O)[C@H](C)NC(=O)[C@H](CC(=O)O)NC(=O)[C@H](CO)NC(=O)CNC(=O)[C@H](CCC(=O)O)NC(=O)[C@@H](N)CCSC)C(=O)NCC(=O)N[C@@H](CC(=O)O)C(=O)N[C@@H](CCC(=O)O)C(=O)N[C@@H](CCSC)C(=O)N[C@@H](CC(=O)O)C(=O)N[C@H](C(=O)N[C@@H](CO)C(=O)N[C@@H](CC(C)C)C(=O)N[C@@H](CCCNC(=N)N)C(=O)N[C@@H](C)C(=O)N1CCC[C@H]1C(=O)O)C(C)C` [Bik], the IC50 worked out at 0.064 ± 0.004 µM. Compared with the last molecule, the IC50 is about 3.2-fold higher.

`CC[C@H](C)[C@H](NC(=O)[C@H](CCC(=O)O)NC(=O)[C@H](CCCN=C(N)N)NC(=O)[C@H](C)NC(=O)[C@H](Cc1c[nH]c2ccccc12)NC(=O)[C@H](CCC(N)=O)NC(=O)[C@H](CCC(=O)O)NC(=O)[C@@H](N)CCC(=O)O)C(=O)NCC(=O)N[C@@H](C)C(=O)N[C@@H](CCC(N)=O)C(=O)N[C@@H](CC(C)C)C(=O)N[C@@H](CCCN=C(N)N)C(=O)N[C@@H](CCCN=C(N)N)C(=O)N[C@@H](CCSC)C(=O)N[C@@H](C)C(=O)N[C@@H](CC(=O)O)C(=O)N[C@@H](CC(=O)O)C(=O)N[C@@H](CC(C)C)C(=O)N[C@@H](CC(N)=O)C(=O)N[C@@H](C)C(=O)N[C@@H](CCC(N)=O)C(=O)N[C@@H](Cc1ccc(O)cc1)C(=O)N[C@@H](CCC(=O)O)C(=O)N[C@@H](CCCN=C(N)N)C(=O)N[C@@H](CCCN=C(N)N)C(=O)O` [Puma]: inhibition was half-maximal at 0.026 ± 0.009 µM (IC50).

PSSTMGQVGRQLAIIGDDINRRYDSE [Bak] gave a concentration for half-maximal inhibition (IC50) of 0.008 µM.

On to VPGRLAEVCAVLLRLGDELEMIRPSV [Bok], for which it took 0.198 ± 0.013 µM to reach half-maximal inhibition (IC50). This IC50 is about 25-fold higher than that of the molecule before.

VPQDASTKKLSECLKRIGDELDSNMELQ [Bax]: 0.016 µM corresponded to half-maximal inhibition (IC50).

The record behind these values is publication PMC9027176 (Viruses, 2022).
